Reference: ChEMBL document CHEMBL1201862, “PubChem BioAssay data set” (2004)
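Growth conditions: 96-well plates. Treatment: test compound, 48 hours, 5 concentrations. Analysis: linear interpolation between bracketing concentrations; unreached endpoints set to highest concentration. Abbreviation: GI50, concentration required for 50% inhibition of growth.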 Calls of active or inactive are those of the source. Rule as the data show it: active = GI50 up to about 1.1 µM and inactive = higher.

What was measured:
Experiment in all cases: DTP human tumour cell line panel, 48 h
HOP-62 = test system: HOP-62
SR = test system: SR
CCRF-CEM = test system: CCRF-CEM
HL-60 = test system: HL-60
ACHN = test system: ACHN
SK-MEL-28 = test system: SK-MEL-28
SN12C = test system: SN12C
MOLT-4 = test system: MOLT-4
COLO 205 = test system: COLO 205
M14 = test system: M14
U-251 = test system: U-251
UACC-257 = test system: UACC-257
UACC-62 = test system: UACC-62
HCT-116 = test system: HCT-116
NCI-H460 = test system: NCI-H460
SNB-19 = test system: SNB-19
NCI-H226 = test system: NCI-H226
RPMI-8226 = test system: RPMI-8226
SK-MEL-2 = test system: SK-MEL-2
Malme-3M = test system: Malme-3M

SMILES	GI50 (HOP-62)	GI50 (SR)	GI50 (CCRF-CEM)	GI50 (HL-60)	GI50 (ACHN)	GI50 (SK-MEL-28)	GI50 (SN12C)	GI50 (MOLT-4)	GI50 (COLO 205)	GI50 (M14)	GI50 (U-251)	GI50 (UACC-257)	GI50 (UACC-62)	GI50 (HCT-116)	GI50 (NCI-H460)	GI50 (SNB-19)	GI50 (NCI-H226)	GI50 (RPMI-8226)	GI50 (SK-MEL-2)	GI50 (Malme-3M)
CC(N/N=C(\S)N1CCN(c2ccccn2)CC1)c1cccc[n+]1[O-] (stereo unspecified)	67.3 µM (inactive)	4.58 µM (inactive)	1.98 µM (inactive)	3.13 µM (inactive)	6.01 µM (inactive)	16.8 µM (inactive)	23.6 µM (inactive)	2.58 µM (inactive)	10.5 µM (inactive)	28.3 µM (inactive)	12.8 µM (inactive)	30.9 µM (inactive)	2.95 µM (inactive)	2.82 µM (inactive)	5.31 µM (inactive)	32.9 µM (inactive)	34.9 µM (inactive)			
COCc1nc(N)nc(N2N=C(C)CC2(C)C)n1	> 100 µM (inactive)	> 100 µM (inactive)	> 100 µM (inactive)	> 100 µM (inactive)	> 100 µM (inactive)	> 100 µM (inactive)	> 100 µM (inactive)	> 100 µM (inactive)	> 100 µM (inactive)	> 100 µM (inactive)	> 100 µM (inactive)	> 100 µM (inactive)	> 100 µM (inactive)	> 100 µM (inactive)	> 100 µM (inactive)	> 100 µM (inactive)	> 100 µM (inactive)	> 100 µM (inactive)	> 100 µM (inactive)	
COC1(OC)C2(Cl)CCC1(Cl)C(OC(C)=O)C2 (stereo unspecified)	> 100 µM (inactive)	> 100 µM (inactive)	> 100 µM (inactive)		> 100 µM (inactive)	> 100 µM (inactive)	> 100 µM (inactive)	> 100 µM (inactive)	> 100 µM (inactive)	> 100 µM (inactive)	> 100 µM (inactive)	> 100 µM (inactive)	> 90.2 µM (inactive)	> 100 µM (inactive)	> 100 µM (inactive)	> 100 µM (inactive)	> 100 µM (inactive)	> 100 µM (inactive)	> 100 µM (inactive)	> 100 µM (inactive)
CC(Oc1cc2oc(=O)cc(-c3ccccc3)c2cc1Cl)C(=O)O (stereo unspecified)	> 100 µM (inactive)	> 100 µM (inactive)	> 100 µM (inactive)	> 100 µM (inactive)	> 100 µM (inactive)	> 100 µM (inactive)	> 100 µM (inactive)	> 100 µM (inactive)	> 100 µM (inactive)	> 100 µM (inactive)	> 100 µM (inactive)	> 100 µM (inactive)	> 100 µM (inactive)	> 100 µM (inactive)	> 100 µM (inactive)	> 100 µM (inactive)	> 100 µM (inactive)			> 100 µM (inactive)
O=C(CSc1nc2ccc(I)cc2c(=O)n1Cc1ccccc1)NN1C(=O)CCC1=O	54.5 µM (inactive)	31.9 µM (inactive)	34.5 µM (inactive)	28.6 µM (inactive)	18.2 µM (inactive)	61.4 µM (inactive)	35.7 µM (inactive)	42.1 µM (inactive)	34 µM (inactive)	79.8 µM (inactive)	41.2 µM (inactive)	45 µM (inactive)	55.7 µM (inactive)	43.3 µM (inactive)	63.8 µM (inactive)	85.3 µM (inactive)	27.3 µM (inactive)	37.7 µM (inactive)	47 µM (inactive)	
Oc1c2cc(Cl)cc1COCc1cc(Cl)cc(c1O)COCc1cc(Cl)cc(c1O)COC2	19.7 µM (inactive)	> 100 µM (inactive)	9.44 µM (inactive)	2.88 µM (inactive)	> 100 µM (inactive)	> 100 µM (inactive)			89.5 µM (inactive)	18.7 µM (inactive)	29.4 µM (inactive)	> 100 µM (inactive)	56.5 µM (inactive)	8.13 µM (inactive)	22.9 µM (inactive)	28 µM (inactive)	30.5 µM (inactive)	> 100 µM (inactive)	> 100 µM (inactive)	
COc1cc(C(=O)O)c([N+](=O)[O-])c(OC)c1OC	> 100 µM (inactive)	> 100 µM (inactive)			> 100 µM (inactive)	> 100 µM (inactive)	> 100 µM (inactive)	> 100 µM (inactive)	> 100 µM (inactive)	> 100 µM (inactive)	> 100 µM (inactive)	> 100 µM (inactive)	> 100 µM (inactive)	> 100 µM (inactive)	> 100 µM (inactive)	> 100 µM (inactive)	> 100 µM (inactive)	> 100 µM (inactive)	> 100 µM (inactive)	> 100 µM (inactive)
COc1cc(/C=C\c2ccc(OC(C)=O)cc2)cc(OC)c1OC	5.32 µM (inactive)	5.04 µM (inactive)	4.06 µM (inactive)		6.46 µM (inactive)	1.44 µM (inactive)	4.22 µM (inactive)	3.78 µM (inactive)	13.3 µM (inactive)	4.49 µM (inactive)	2.37 µM (inactive)	2.48 µM (inactive)	4.85 µM (inactive)	4.43 µM (inactive)	4.1 µM (inactive)	0.668 µM (active)	33.7 µM (inactive)	0.587 µM (active)	4.26 µM (inactive)	2.06 µM (inactive)
O=c1n(N=[S+]([O-])(c2ccccc2)c2ccccc2)c(=O)n2n1C1C=CC2CC1	> 100 µM (inactive)	> 100 µM (inactive)	> 100 µM (inactive)	> 100 µM (inactive)	> 100 µM (inactive)	> 100 µM (inactive)	> 100 µM (inactive)	> 100 µM (inactive)	> 100 µM (inactive)	> 100 µM (inactive)	> 100 µM (inactive)	> 100 µM (inactive)	> 100 µM (inactive)	> 100 µM (inactive)	> 100 µM (inactive)	> 100 µM (inactive)	> 100 µM (inactive)	> 100 µM (inactive)	> 100 µM (inactive)	
Cc1ccc(/C(C#N)=C/c2cccc([N+](=O)[O-])c2)cc1	38.1 µM (inactive)	> 100 µM (inactive)			> 100 µM (inactive)	> 100 µM (inactive)	> 100 µM (inactive)		> 100 µM (inactive)	> 100 µM (inactive)	46.7 µM (inactive)	> 100 µM (inactive)	71.1 µM (inactive)	76.2 µM (inactive)	> 100 µM (inactive)	43.8 µM (inactive)	> 100 µM (inactive)	> 100 µM (inactive)	51.9 µM (inactive)	> 100 µM (inactive)
Cc1ccc(C2SCC(=O)N2NC(=O)c2ccncc2)s1 (stereo unspecified)	> 100 µM (inactive)	> 100 µM (inactive)	> 100 µM (inactive)		> 100 µM (inactive)	> 100 µM (inactive)	> 100 µM (inactive)	> 100 µM (inactive)	> 100 µM (inactive)	> 100 µM (inactive)	> 100 µM (inactive)	> 100 µM (inactive)	> 100 µM (inactive)	> 100 µM (inactive)		> 100 µM (inactive)	> 100 µM (inactive)	> 100 µM (inactive)	> 100 µM (inactive)	> 100 µM (inactive)
Nc1ccn(CCOC(c2ccccc2)P(=O)(O)O)c(=O)n1 (stereo unspecified)		> 100 µM (inactive)	> 100 µM (inactive)	> 100 µM (inactive)	> 100 µM (inactive)	> 100 µM (inactive)	> 100 µM (inactive)	> 100 µM (inactive)	> 100 µM (inactive)		> 100 µM (inactive)	> 100 µM (inactive)	> 100 µM (inactive)	> 100 µM (inactive)	> 100 µM (inactive)	> 100 µM (inactive)	> 100 µM (inactive)		> 100 µM (inactive)	> 100 µM (inactive)
COc1ccc(C(=O)/C=C/c2ccc(OCCCOc3ccc(/C=C/C(=O)c4ccc(OC)c(OC)c4)cc3)cc2)cc1OC	> 100 µM (inactive)	> 100 µM (inactive)	> 100 µM (inactive)	> 100 µM (inactive)	> 100 µM (inactive)	> 100 µM (inactive)	> 100 µM (inactive)	> 100 µM (inactive)	> 100 µM (inactive)	> 100 µM (inactive)	> 100 µM (inactive)	> 100 µM (inactive)	> 100 µM (inactive)	> 100 µM (inactive)	> 100 µM (inactive)	> 100 µM (inactive)	> 100 µM (inactive)	> 100 µM (inactive)	> 100 µM (inactive)	
OCCCCn1cc(Cn2ncc3c(O)ncnc32)nn1	> 100 µM (inactive)	> 100 µM (inactive)	> 100 µM (inactive)		> 100 µM (inactive)	> 100 µM (inactive)	> 100 µM (inactive)	> 100 µM (inactive)	> 100 µM (inactive)	> 100 µM (inactive)	> 100 µM (inactive)	> 100 µM (inactive)	> 100 µM (inactive)	> 100 µM (inactive)	> 100 µM (inactive)	> 100 µM (inactive)	> 100 µM (inactive)	> 100 µM (inactive)	> 100 µM (inactive)	> 100 µM (inactive)
CC(CCC(=O)O)(c1ccc(O)cc1)c1ccc(O)cc1	> 100 µM (inactive)	> 100 µM (inactive)			> 100 µM (inactive)	> 100 µM (inactive)	> 100 µM (inactive)	> 100 µM (inactive)		> 100 µM (inactive)	> 100 µM (inactive)	> 100 µM (inactive)	> 100 µM (inactive)	> 100 µM (inactive)	> 100 µM (inactive)	> 100 µM (inactive)	> 100 µM (inactive)		> 100 µM (inactive)	> 100 µM (inactive)
